Results on four compounds are retold here after patent US9962384B1, “Levosimendan compound for preventing or treating tau-related diseases” (KOREA INSTITUTE OF SCIENCE AND TECHNOLOGY, priority 2017, dated 2018).

The structures appear in SMILES notation.

The IC50 is the concentration that inhibits the measured activity by half.

The subject of one data set is tau-BiFC cells. Kind of data set: Cell viability by cell nucleus staining with Hoechst. The format is cell-based. The settings on record: forskolin 30 μM; for cytotoxicity / cell viability (number of nuclei stained with Hoechst): 10 μM compound, 48 hours. As to the method: (§1) To screen a new tau aggregation inhibitor, tau-BiFC cell model making it possible to easily observe tau oligomer formation in living cells was treated an FDA-approved drug library (a total of 1018 compounds). As shown in a schematic view of FIG. 1, tau-BiFC cells were plated on a 384-well plate. On the next day, the tau-BiFC cells were treated with FDA-approved drugs (treatment concentration: 10 μM) together with the compound forskolin (treatment concentration: 30 μM) that activates tau kinase PKA to induce tau aggregation. After 46 hours, the tau aggregation inhibitory activities of the drugs were analyzed, and cell viability by the compounds was analyzed by cell nucleus staining with Hoechst. […] To further confirm the tau aggregation inhibitory activity of the selected levosimendan, tau-BiFC cells were treated with DMSO, MB or levosimendan (treatment concentration: 10 μM) together with the compound forskolin (treatment concentration: 30 μM) that activates tau kinase PKA to induce tau aggregation. At this time, methylene blue (MB) known to show tau aggregation inhibitory activity was used as a comparative compound (positive control). After 48 hours, the tau aggregation inhibitory activity of the compound was analyzed, and cell viability by the compound was analyzed by cell nucleus staining with Hoechst.
Furthermore, it could be seen that the fluorescence value of the test group (levosimendan) decreased, similar to that of the positive control group (MB).
(§2) In addition, in order to further confirm the tau aggregation inhibitory activity of the selected levosimendan compound in living cells, tau-BiFC cells were treated with the tau inducer forskolin (treatment concentration: 30 μM) together with 1, 3, 10, 30 or 100 μM of the levosimendan compound. After 48 hours, tau aggregation reactions in the cells were analyzed by analysis of tau-BiFC response, and cell viability was analyzed to determine the toxicity of the compound.

Data set [1] concerns the target T1, tau (Homo sapiens, UniProt P10636). Put plainly: Tau phosphorylation by Western blot of tau-BiFC cell lysates. The format is cell-based. The note with it: forskolin 30 μM, 36 hours. Further details: fused on or other part: N-terminal and C-terminal non-fluorescent fragments of Venus fused to tau (BiFC reporter handles). As to the method: In order to confirm whether the levosimendan compound would show tau aggregation inhibitory activity by inhibiting tau phosphorylation, Tau-BiFC cells were treated with the tau aggregation inducer forskolin (treatment concentration: 30 μM) and the levosimendan compound (treatment concentration: 15 μM). After 36 hours, the tau-BiFC cell lysates were analyzed by Western blot analysis to measure tau phosphorylation.
(In western blotting, separated proteins are transferred to a membrane and probed.)

In data set [2] the target is T1, tau. Kind of data set: Intracellular tau aggregation in tau-BiFC cell model (forskolin-induced). The format is cell-based. Further details: fused on or other part: N-terminal and C-terminal non-fluorescent fragments of Venus fused to tau (BiFC reporter handles). The note with it: forskolin 30 μM; for concentration dependence of tau-BiFC fluorescence value: 1-100 μM; for tau aggregation in tau-BiFC cells (Example 5, metabolites comparison): varying concentrations. The protocol:
Furthermore, the following examples were performed based on tau-BiFC cell model. The tau-BiFC cell model is a reliable system for monitoring the interaction between tau oligomers, and is a Venus protein-based BiFC method in which the N-terminal and C-terminal non-fluorescent fragments of Venus protein are fused to tau. A further detailed definition and method for the tau-BiFC cell model are as described in Korean Patent No. 10-1546485.
as §1, §2
The levosimendan compound has two metabolite forms ([…] and activated (OR-1896)). […] Specifically, tau-BiFC cells were treated with varying concentrations of each of MB, levosimendan, OR-1855 and OR-1896 compounds together with the tau aggregation inducer forskolin (treatment concentration: 30 μM). After 48 hours, the extent of tau aggregation in the cells was analyzed.

Data set [3] concerns mouse cerebral cortical neuronal cells. Kind of data set: Neuronal cell protection against TauK18P301L damage. The format is cell-based. The note with it: 10 μM, 2 hours before TauK18P301L 20 μg/mL; E18, DIV8. From the text:
Whether the levosimendan compound would protect neuronal cells from neuronal cell damage was examined.

Another data set has as its system tau kinase. Kind of data set: Tau kinase activity.
Data set [4] addresses T1, tau. Put plainly: In vitro tau aggregation with ThS (Thioflavin S). The format is biochemical. The settings on record: Tau pre-Agg+100 uM DTT+0.1 mg/mL Heparin, 37° C. As to the method:
(§3) Thus, whether the levosimendan compound would be involved in the tau aggregation process to inhibit tau aggregation was examined. Specifically, whether the levosimendan compound would inhibit the tau aggregation process was analyzed in vitro, and whether the levosimendan compound would prevent additional aggregation of aggregated tau and dissociate the aggregation was analyzed in vitro. The tau aggregation process (Tau pre-Agg+100 uM DTT+0.1 mg/mL Heparin, incubated at 37° C.) in vitro was treated with varying concentrations of the levosimendan compound, and the degree of tau aggregation was analyzed with ThS (Thioflavin S). The ThS is a dye capable of measuring tau aggregation in vitro in real time, and is used as a fluorescence probe that detects β-sheet aggregation.

In another data set the target is tau aggregates (Homo sapiens, UniProt P10636). Kind of data set: In vitro dissociation of tau aggregates. It is filed as biochemical. The note with it: Tau-Agg+100 uM DTT+0.1 mg/mL Heparin, 37° C., varying concentrations. As to the method: as §3
Chain of tau aggregates (P10636 1-441 isoform P10636-8): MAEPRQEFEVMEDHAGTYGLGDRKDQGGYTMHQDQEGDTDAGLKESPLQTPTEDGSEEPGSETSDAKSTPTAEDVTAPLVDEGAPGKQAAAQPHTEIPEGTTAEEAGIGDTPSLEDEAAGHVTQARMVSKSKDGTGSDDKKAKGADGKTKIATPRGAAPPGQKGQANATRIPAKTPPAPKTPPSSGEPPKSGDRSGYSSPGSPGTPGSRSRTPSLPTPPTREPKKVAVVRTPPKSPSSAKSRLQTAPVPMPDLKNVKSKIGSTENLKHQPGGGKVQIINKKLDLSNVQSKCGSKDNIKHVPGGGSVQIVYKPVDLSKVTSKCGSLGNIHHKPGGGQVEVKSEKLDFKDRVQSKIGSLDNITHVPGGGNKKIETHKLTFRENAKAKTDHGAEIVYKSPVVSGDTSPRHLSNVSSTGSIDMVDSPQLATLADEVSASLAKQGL
[5] abbreviates: 15 μM, vs forskolin-treated cells.

T1 sequence (P10636 1-441 isoform P10636-8): as above

Take `CN(C)c1ccc2nc3ccc(=[N+](C)C)cc-3sc2c1` [MB, methylene blue]: the “cytotoxicity / cell viability (number of nuclei stained with Hoechst)” value is on record as “decreased” in the data set on tau-BiFC cells and “cytotoxicity higher than that of the levosimendan compound” in the data set with tau-BiFC cells (listed as methylene blue). The “tau phosphorylation compared to forskolin-treated cells” value on tau [1] is recorded as “decreased compared to that in the forskolin-treated cells”. Besides, on tau [2] (48 hours), the “concentration dependence of tau-BiFC fluorescence value” is given as “concentration-dependent decrease in the fluorescence value”.

Turning to `C[C@@H]1CC(=O)NN=C1c1ccc(N)cc1` [OR-1855], the “tau aggregation in tau-BiFC cells (Example 5, metabolites comparison)” value (shortened to “tau aggregation in tau-BiFC cells”) on tau [2] (48 hours) is on record as “did not show tau aggregation inhibitory activity”.

`CC(=O)Nc1ccc(C2=NNC(=O)C[C@H]2C)cc1` [OR-1896]: the “tau aggregation in tau-BiFC cells” value on tau [2] (48 hours) was “did not show tau aggregation inhibitory activity”.

For `C[C@@H]1CC(=O)NN=C1c1ccc(NN=C(C#N)C#N)cc1` [levosimendan], in the data set on tau-BiFC cells (10 μM, 46 hours), the “cell viability in drug library screening” value is “cell viability equal to that of drug-untreated normal cells”. Moreover, on tau [1] (setting [5]), the “tau phosphorylation decrease at Ser199” value is on record as “about 34%” and the “tau phosphorylation decrease at Ser396” value is “about 35%”. Also, the “tau phosphorylation compared to forskolin-treated cells” value at tau [1] is on record as “decreased compared to that in the forskolin-treated cells”. Further, the “damage to neuronal cells, neuronal cell morphology and neurite length” value in data set [3] was “decreased compared to that in the negative control group (DMSO) and the positive control group (MB)”. At tau [2] (10 μM compound, 48 hours), the “tau-BiFC fluorescence value (RFU), tau aggregation inhibitory activity” value was “decreased compared to that of the negative control group (DMSO)”. In addition, the “tau aggregation inhibitory activity in drug library screening” value at tau [2] (10 μM, 46 hours, 384-well plate) is on record as “tau aggregation inhibitory activity equal to that of methylene blue (MB)”. Besides, at tau [2] (48 hours), the “concentration dependence of tau-BiFC fluorescence value” is “concentration-dependent decrease in the fluorescence value” and the “tau aggregation in tau-BiFC cells” value is listed as “decreased similar to that in the positive control group (MB)”. In addition, on tau [2] (1, 3, 10, 30 or 100 μM compound, 48 hours, read-out: IC50 of decrease in tau-BiFC fluorescence value), the IC50 came to 2.2 µM. In addition, the “changes in tau kinase activity” value in the data set with tau kinase is given as “did not affect changes in tau kinase activity”. For the same compound, on tau [4], the concentration for half-maximal inhibition (IC50) turned out to be 4.71 µM. In addition, the “effect on tau aggregates in vitro” value at tau aggregates is “had the effect of dissociating tau aggregates”.
